Numbered stars: 1 amine (or outer) side, 2 acyl side, 3 side chain; on linkers, the order of the positions; unused ones are H or OH. Bridge positions count the residues as written; N and C are the ends. Square brackets hold non-standard residues; d marks the D form. Peptide text beside a SMILES is read from it. * marks the point of attachment. Pyrazinoyl(5-oxo-4H) = O=C(c1c[nH]c(=O)cn1)*; 1,2,3Thiadiazole5CO(4-Me) = Cc1nnsc1C(=O)*; Nicotinoyl(6-OMe) = COc1ccc(C(=O)*)cn1; 2Thenoyl(5-Cl) = O=C(c1ccc(Cl)s1)*; Phenoxyacetyl = O=C(COc1ccccc1)*; Cysteamide = C(CS[*:3])N[*:1]; X3 = O=C(Cc1c[nH]c2ccccc12)*; 3Amb = NCc1cccc(C(=O)O)c1; Isovaleryl = CC(C)CC(=O)*; 2Furoyl = O=C(c1ccco1)*; Mpa = O=C(O)CCS
molecular target: T1, thrombin (Homo sapiens, UniProt P00734); test: Thrombin inhibition screen of crude macrocycle reactions (residual thrombin activity, fluorogenic substrate Z-Gly-Gly-Arg-AMC); assay type: biochemical; conditions: 10 µM macrocycle concentration; crude reactions, Library 1a-l; scaffold AA1-AA2-AA3 combined with 1-16 or '-'
T1 construct: consists of two polypeptide chains of 36 (light chain) and 259 amino acid
Procedure, shortened: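 Residual activity was measured as the AMC release rate after adding 50 μM Z-Gly-Gly-Arg-AMC. This followed a 10-min room-temperature preincubation of 2 nM thrombin with 10 μM single macrocycles in pH 7.4 Tris buffer (0.6% DMSO). Percent inhibition was taken against the mean slope of DMSO controls.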

Row | percent residual thrombin activity [%] | SMILES
1 | 102.51 | C[C@H]1NC(=O)CCSSCCNC(=O)c2cccc(c2)CNC(=O)[C@H](CCCCNC(=O)c2ccc(Cl)s2)NC1=O [a-D1-B5/14]
2 | 108.99 | C[C@H]1NC(=O)CCSSCCNC(=O)c2cccc(c2)CNC(=O)[C@H](CCCCN)NC1=O [a-D1-B5/-] ([Mpa][dA]K[3Amb]-Cysteamide; disulfide 1-C)
3 | 113.66 | O=C1CCNC(=O)[C@@H](CO)NC(=O)CCSSCCNC(=O)[C@H](CCCCNC(=O)c2cnccn2)N1 [s-B2-D1/2]
4 | 111.495 | Cc1cc(C(=O)NCCCC[C@@H]2NC(=O)CCNC(=O)[C@@H](CO)NC(=O)CCSSCCNC2=O)no1 [s-B2-D1/3]
5 | 109.681 | O=C1CCNC(=O)[C@@H](CO)NC(=O)CCSSCCNC(=O)[C@H](CCCCNC(=O)c2c[nH]c(=O)cn2)N1 [s-B2-D1/9]
6 | 113.521 | O=C1CCNC(=O)[C@@H](CO)NC(=O)CCSSCCNC(=O)[C@H](CCCCNC(=O)c2c[nH]c(=O)[nH]c2=O)N1 [s-B2-D1/11]
7 | 112.63 | O=C(COc1ccccc1)NCCCC[C@@H]1NC(=O)CCNC(=O)[C@@H](CO)NC(=O)CCSSCCNC1=O [s-B2-D1/13]
8 | 112.001 | O=C1CCNC(=O)[C@@H](CO)NC(=O)CCSSCCNC(=O)[C@H](CCCCNC(=O)c2ccco2)N1 [s-B2-D1/16]
9 | 109.656 | COc1ccc(C(=O)NCCCC[C@@H]2NC(=O)[C@H]3CCCN(C3)C(=O)[C@@H](CO)NC(=O)CCSSCCNC2=O)cn1 [s-B4-D1/10]
10 | 112.975 | O=C1CCSSCCNC(=O)[C@H](CCCCNC(=O)c2c[nH]c(=O)[nH]c2=O)NC(=O)[C@H]2CCCN(C2)C(=O)[C@@H](CO)N1 [s-B4-D1/11]
11 | 112.216 | O=C(COc1ccccc1)NCCCC[C@@H]1NC(=O)[C@H]2CCCN(C2)C(=O)[C@@H](CO)NC(=O)CCSSCCNC1=O [s-B4-D1/13]
12 | 99.656 | CC(C)[C@@H]1NC(=O)CCSSCCNC(=O)[C@@H]2CCCN2C(=O)[C@H](CCCCNC(=O)c2c[nH]c(=O)cn2)NC1=O [v-D1-B1/9] ([Mpa]VK(Pyrazinoyl(5-oxo-4H))P-Cysteamide; disulfide 1-C)
13 | 104.488 | COc1ccc(C(=O)NCCCC[C@@H]2NC(=O)[C@H](C(C)C)NC(=O)CCSSCCNC(=O)[C@@H]3CCCN3C2=O)cn1 [v-D1-B1/10] ([Mpa]VK(Nicotinoyl(6-OMe))P-Cysteamide; disulfide 1-C)
14 | 99.643 | CC(C)[C@@H]1NC(=O)CCSSCCNC(=O)[C@@H]2CCCN2C(=O)[C@H](CCCCNC(=O)Cc2c[nH]c3ccccc23)NC1=O [v-D1-B1/12] ([Mpa]VK(X3)P-Cysteamide; disulfide 1-C)
15 | 104.766 | CC(C)[C@@H]1NC(=O)CCSSCCNC(=O)[C@@H]2CCCN2C(=O)[C@H](CCCCNC(=O)COc2ccccc2)NC1=O [v-D1-B1/13] ([Mpa]VK(Phenoxyacetyl)P-Cysteamide; disulfide 1-C)
16 | 97.5215 | CC(C)[C@@H]1NC(=O)CCSSCCNC(=O)[C@@H]2CCCN2C(=O)[C@H](CCCCNC(=O)c2ccc(Cl)s2)NC1=O [v-D1-B1/14] ([Mpa]VK(2Thenoyl(5-Cl))P-Cysteamide; disulfide 1-C)
17 | 105.611 | Cc1nnsc1C(=O)NCCCC[C@@H]1NC(=O)[C@H](C(C)C)NC(=O)CCSSCCNC(=O)[C@@H]2CCCN2C1=O [v-D1-B1/15] ([Mpa]VK(1,2,3Thiadiazole5CO(4-Me))P-Cysteamide; disulfide 1-C)
18 | 102.421 | CC(C)[C@@H]1NC(=O)CCSSCCNC(=O)[C@@H]2CCCN2C(=O)[C@H](CCCCNC(=O)c2ccco2)NC1=O [v-D1-B1/16] ([Mpa]VK(2Furoyl)P-Cysteamide; disulfide 1-C)
19 | 104.378 | O=C(Cc1c[nH]c2ccccc12)NCCCC[C@@H]1NC(=O)[C@@H](Cc2ccc(O)cc2)NC(=O)CCSSCCNC(=O)[C@@H]2CCCN2C1=O [y-D1-B1/12] ([Mpa][dY]K(X3)P-Cysteamide; disulfide 1-C)
20 | 104.272 | O=C1CCSSCCNC(=O)[C@@H]2CCCN2C(=O)[C@H](CCCCNC(=O)c2ccco2)NC(=O)[C@@H](Cc2ccc(O)cc2)N1 [y-D1-B1/16] ([Mpa][dY]K(2Furoyl)P-Cysteamide; disulfide 1-C)

Further lines, the compound ahead of its results:

Row | SMILES | percent residual thrombin activity [%]
21 | C[C@H]1NC(=O)CCSSCCNC(=O)[C@H](CCCCN)NC(=O)CCNC1=O [a-B2-D1/-] | 105.008
22 | C[C@H]1NC(=O)CCSSCCNC(=O)[C@@H]2CCCN2C(=O)[C@H](CCCCNC(=O)Cc2c[nH]c3ccccc23)NC1=O [a-D1-B1/12] ([Mpa][dA]K(X3)P-Cysteamide; disulfide 1-C) | 113.455
23 | C[C@H]1NC(=O)CCSSCCNC(=O)[C@@H]2CCCN2C(=O)[C@H](CCCCNC(=O)c2ccc(Cl)s2)NC1=O [a-D1-B1/14] ([Mpa][dA]K(2Thenoyl(5-Cl))P-Cysteamide; disulfide 1-C) | 109.871
24 | CC1NC(=O)CCSSCCNC(=O)C2CCCN2C(=O)C(CCCCNC(=O)c2ccco2)NC1=O (centres unmarked) [a-D1-B1/16] ([Mpa]AK(2Furoyl)P-Cysteamide; disulfide 1-C; configuration not given here) | 113.28
25 | C[C@H]1NC(=O)CCSSCCNC(=O)[C@H]2CCCN(C2)C(=O)[C@H](CCCCNC(=O)c2ccccc2)NC1=O [a-D1-B4/1] | 107.784
26 | C[C@H]1NC(=O)CCSSCCNC(=O)[C@H]2CCCN(C2)C(=O)[C@H](CCCCNC(=O)c2c[nH]c(=O)cn2)NC1=O [a-D1-B4/9] | 108.338
27 | C[C@H]1NC(=O)CCSSCCNC(=O)c2cccc(c2)CNC(=O)[C@H](CCCCNC(=O)c2cnccn2)NC1=O [a-D1-B5/2] | 104.737
28 | CC(C)CC(=O)NCCCC[C@@H]1NC(=O)[C@@H](C)NC(=O)CCSSCCNC(=O)c2cccc(c2)CNC1=O [a-D1-B5/8] ([Mpa][dA]K(Isovaleryl)[3Amb]-Cysteamide; disulfide 1-C) | 99.075
29 | COc1ccc(C(=O)NCCCC[C@@H]2NC(=O)[C@@H](C)NC(=O)CCSSCCNC(=O)c3cccc(c3)CNC2=O)cn1 [a-D1-B5/10] | 109.062
30 | C[C@H]1NC(=O)CCSSCCNC(=O)c2cccc(c2)CNC(=O)[C@H](CCCCNC(=O)COc2ccccc2)NC1=O [a-D1-B5/13] | 105.866

molecular target: MDM2 (Homo sapiens, UniProt Q00987); test: MDM2 binding screen of Libraries 3 and 4: displacement of fluorescent probe F-M8 at 750 nM macrocycle; conditions: Panel b, Library 3: 63 scaffolds combinatorially acylated with 15 carboxylic acids at 30 picomole scale; displacement of fluorescent peptide probe; macrocycle 750 nM
Procedure: The cyclic peptide scaffolds required for Libraries 3 and 4 were synthesized as described for those used in Library 2. Due to the presence of many N-methylated amino acids which are more difficult to couple, 200 mM HOAt was applied together with HATU. The scaffolds were diluted to 2 mM in DMSO, and 15 nL were transferred using acoustic dispensing, followed by 15 nL DMSO containing carboxylic acids (40 mM, 20 equiv.), HBTU (40 mM) and DABCO (40 mM). After 6 h reaction at room temperature, 370 nL of DMSO was added to each well, followed by 5 μL of 100 mM Tris-Cl pH 7.4 containing 0.01% v/v Tween20, for quenching overnight.

Sequence of MDM2 (Q00987 whole entry): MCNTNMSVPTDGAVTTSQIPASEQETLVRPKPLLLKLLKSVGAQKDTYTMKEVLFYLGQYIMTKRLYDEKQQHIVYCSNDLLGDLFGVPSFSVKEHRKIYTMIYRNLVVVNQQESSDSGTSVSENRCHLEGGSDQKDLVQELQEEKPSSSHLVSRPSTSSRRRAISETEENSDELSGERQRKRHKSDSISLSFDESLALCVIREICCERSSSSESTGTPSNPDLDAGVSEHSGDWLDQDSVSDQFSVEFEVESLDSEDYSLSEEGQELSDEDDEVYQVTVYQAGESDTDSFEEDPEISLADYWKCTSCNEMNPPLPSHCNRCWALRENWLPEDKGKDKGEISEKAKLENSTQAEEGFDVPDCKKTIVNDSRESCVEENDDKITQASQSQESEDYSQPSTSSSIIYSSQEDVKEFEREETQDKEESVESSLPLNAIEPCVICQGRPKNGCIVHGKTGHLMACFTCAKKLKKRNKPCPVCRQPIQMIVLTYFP

Row | fraction of fluorescent probe displaced | SMILES
31 | -0.034 | O=C1CCSSCCNC(=O)C(Cc2cccc3ccccc23)NC(=O)C(CNC(=O)C2CC2c2ccccc2)NC(=O)C2(CC2)CN1 (mixture of isomers) [X-Amcp-D-Dap-1-NaI + Acid 105]
32 | -0.00533 | CC(Oc1cccc(Cl)c1)C(=O)NCC1NC(=O)C2(CC2)CNC(=O)CCSSCCNC(=O)C(Cc2ccc3ccccc3c2)NC1=O (mixture of isomers) [X-Amcp-D-Dap-2-Nal + Acid 113]
33 | -0.041 | O=C1CCSSCCNC(=O)C(Cc2c[nH]c3ccccc23)NC(=O)C(CNC(=O)C2CC2c2ccccc2)NC(=O)C2(CC2)CN1 (mixture of isomers) [X-Amcp-D-Dap-D-Trp + Acid 105]
34 | 0.015 | CN1C(=O)C(CNC(=O)C2COc3ccccc3O2)NC(=O)C2(CC2)CNC(=O)CCSSCCNC(=O)C1Cc1c[nH]c2ccccc12 (mixture of isomers) [X-Amcp-D-Dap-NMe-Trp + Acid 115]
35 | -0.019 | CC(Oc1cccc(Cl)c1)C(=O)NCC1NC(=O)C2(CC2)CNC(=O)CCSSCCNC(=O)C(Cc2c[nH]c3cc(Cl)ccc23)NC1=O (mixture of isomers) [X-Amcp-Dap-Cl-Trp + Acid 113]
36 | -0.012 | CC(Oc1cccc(Cl)c1)C(=O)NCC1NC(=O)C2(CC2)CNC(=O)CCSSCCNC(=O)C(Cc2c[nH]c3ccccc23)NC1=O (mixture of isomers) [X-Amcp-Dap-D-Trp + Acid 113]
37 | 0.008 | CC(Oc1cccc(Cl)c1)C(=O)NCC1NC(=O)C2(CC2)CNC(=O)CCSSCCNC(=O)C(Cc2cn(C)c3ccccc23)NC1=O (mixture of isomers) [X-Amcp-Dap-Me-Trp + Acid 113]
38 | 0.00133 | CC(Oc1cccc(Cl)c1)C(=O)NCC1NC(=O)C2(CC2)CNC(=O)CCSSCCNC(=O)C(Cc2c[nH]c3ccccc23)NC1=O (mixture of isomers) [X-Amcp-Dap-Trp + Acid 113]
39 | 0.00133 | O=C1CCSSCCNC(=O)C(Cc2c[nH]c3ccccc23)NC(=O)C(CNC(=O)C2COc3ccccc3O2)NC(=O)C2(CC2)CN1 (mixture of isomers) [X-Amcp-Dap-Trp + Acid 115]
40 | -0.00533 | O=C1CCSSCCNC(=O)C(Cc2cccc3ccccc23)NC(=O)CN(CCNC(=O)C2COc3ccccc3O2)C(=O)C2(CC2)CN1 (mixture of isomers) [X-Amcp-N-Aeg-1-NaI + Acid 115]
41 | 0.015 | O=C1CCSSCCNC(=O)C(Cc2ccc3ccccc3c2)NC(=O)CN(CCNC(=O)C2COc3ccccc3O2)C(=O)C2(CC2)CN1 (mixture of isomers) [X-Amcp-N-Aeg-2-Nal + Acid 115]

Source: paper PMC9250534, “Synthesis and direct assay of large macrocycle diversities by combinatorial late-stage modification at picomole scale” (Nature Communications, 2022)
